Assay results from PMC2719696, “Kinetics and Cellular Site of Glycolipid Loading Control the Outcome of Natural Killer T Cell Activation” (Immunity, 2009).

Target: T1, mCD1d (Mus musculus, UniProt P11609)
T1 construct: host or cells: JAWS II (C57BL/6.Trp53-/- derived dendritic cell line)
T1 sequence (P11609 22-336): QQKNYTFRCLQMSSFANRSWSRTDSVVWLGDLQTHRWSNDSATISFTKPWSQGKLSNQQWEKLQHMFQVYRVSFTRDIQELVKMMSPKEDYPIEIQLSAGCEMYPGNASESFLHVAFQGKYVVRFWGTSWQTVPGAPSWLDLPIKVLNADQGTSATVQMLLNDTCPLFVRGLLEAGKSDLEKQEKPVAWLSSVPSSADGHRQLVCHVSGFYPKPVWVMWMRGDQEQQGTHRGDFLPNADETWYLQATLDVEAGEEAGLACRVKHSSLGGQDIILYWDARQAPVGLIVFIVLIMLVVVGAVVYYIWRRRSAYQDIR
T1 sequence (P01887 21-119 partner): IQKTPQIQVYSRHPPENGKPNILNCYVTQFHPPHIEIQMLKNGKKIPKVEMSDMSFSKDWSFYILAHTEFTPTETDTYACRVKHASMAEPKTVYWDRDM
Assay: Confocal microscopy of L363 staining in JAWS II cells (surface and permeabilized)
Type: cell-based
Conditions: for L363 surface staining of intact cells (confocal): 100 nM glycolipid, 1, 4 or 16 hr; for site of L363 staining in permeabilized cells: 1 hr incubation, co-stained for LAMP-1
Method: To visualize the kinetics and sites of mCD1d loading by αGalCer analogs in live cells, we analyzed intact JAWS II cells for surface staining with mAb L363 after 1, 4, or 16 hr of incubation with αGalCer-C26:0 or with either of two Th2 cell-type cytokine-biasing analogs (αGalCer-C20:2 or -C10:0) (Figure 4A). Strong staining of the plasma membrane was seen after 16 hr of incubation in all cases. […] To image earlier steps in glycolipid loading, we permeabilized and fixed cells prior to staining with L363 and with an antibody to the late endosomal and lysosomal marker LAMP-1 (Figure 4A). […] At 4 hr, these complexes began to colocalize with LAMP-1, and only at 16 hr could clear surface staining be seen along with the persistent intracellular staining in LAMP-1^+ compartments (Figure 4A).
Figure 4 Cell Surface versus Intracellular Loading of mCD1d with Different αGalCer Analogs (A) On the left, surface accumulation of CD1d-αGalCer complexes was studied with JAWS II cells harvested after incubation with the indicated glycolipids for 1, 4, or 16 hr and then stained without permeabilization with mAb L363 (red). Cells were then fixed, stained with DAPI for nuclei visualization (blue), and analyzed by confocal microscopy. On the right, the intracellular formation and trafficking of CD1d-αGalCer complexes were analyzed by treatment of JAWS II cells with αGalCer analogs for 1, 4, and 16 hr followed by fixation and permeabilization. The cells were stained for CD1d-αGalCer complexes (L363, red), late endosomes and lysosomes (anti-LAMP-1, green), and nuclei (DAPI, blue). Results are representative of three separate experiments. The scale bar represents 10 μm. (B) Murine iNKT cell hybridoma cells (DN3A4.1-2) were stimulated with αGalCer analogs. As APCs for these stimulations, we used A20 cells transfected with wild-type CD1d (CD1d.WT) or cytoplasmic-tail-deleted CD1d (CD1d.TD). Supernatant concentrations of IL-2 release were determined after 12 hr. IL-2 production over a range of concentrations is shown for αGalCer-C26:0 and two analogs that produce a Th2 cell-type cytokine bias (αGalCer-C20:2 and -PGB1).
JAWS II cells were incubated at 37°C with 100 nM glycolipids for various times as indicated. For surface staining, live cells were harvested and washed extensively with PBS, resuspended in PBS + 1% BSA + 0.1% NaN3, stained on ice with 10 μg/ml Alexa Fluor 647-conjugated mAb L363 for 30 min, and lastly washed extensively and fixed with 4% paraformaldehyde. Cells were washed with PBS and settled onto poly-L-lysine-coated coverslips for 30 min and mounted with ProLong Gold with DAPI mounting medium (Invitrogen). For intracellular staining, JAWS II cells grown on glass coverslips were fixed in 4% paraformaldehyde, permeabilized with 0.05% Triton X-100 for 5 min, and stained with 10 μg/ml Alexa Fluor 647-conjugated L363 and FITC-conjugated anti-LAMP-1. Coverslips were washed and mounted. Confocal images were obtained with a Leica SP2 AOBS confocal microscope (Leica Microsystems). For colocalization of αGalCer/mCD1d complexes with ganglioside GM1-enriched plasma membrane lipid rafts, JAWS II cells were incubated for 18 hr at 37°C in complete medium without or with 100 nM of glycolipids. […] We performed quantitative analysis of colocalization by selecting 20–25 random cells in each group and determining a Pearson correlation coefficient for the distribution of pixel densities for K253 or L363 fluorescence compared to cholera toxin B-specific fluorescence. […]

Structure (SMILES)	L363 surface staining of intact cells (confocal)	site of L363 staining in permeabilized cells
CCCCCC=CCC=CCCCCCCCCCC(=O)NC(COC1OC(CO)C(O)C(O)C1O)C(O)C(O)CCCCCCCCCCCCCC (centres unmarked) [αGalCer-C20:2]	showed L363 staining at earlier time points	L363 staining was observed at the plasma membrane
CCCCCCCCCCCCCCC(O)C(O)C(COC1OC(CO)C(O)C(O)C1O)NC(=O)CCCCCCCCC (centres unmarked) [αGalCer-C10:0]	showed L363 staining at earlier time points	L363 staining was observed at the plasma membrane
CCCCCCCCCCCCCCCCCCCCCCCCCC(=O)NC(COC1OC(CO)C(O)C(O)C1O)C(O)C(O)CCCCCCCCCCCCCC (centres unmarked) [αGalCer-C26:0, reference compound]		observed only in a punctate intracellular distribution
